# Results published in ChEMBL document CHEMBL4007451, “The 2014 Philip S. Portoghese Medicinal Chemistry Lectureship: The "Phenylalkylaminome" with a Focus on Selected Drugs of Abuse” (J Med Chem, 2017).
# Key:
# [1] = molecular target: 5-hydroxytryptamine receptor 6 (Homo sapiens, UniProt P50406); experiment: Displacement of [3H]LSD from human 5HT6 receptor expressed in HEK293 cells; type: cell-based
# Rhesus monkey = experiment: In vivo agonist activity at 5HT2A in DOM-trained rhesus monkey assessed as increase in discriminative stimulus administered subcutaneously pretreated before testing; type: functional; conditions: Macaca mulatta, sc
# [2] = molecular target: T1, 5-hydroxytryptamine receptor 2A (Rattus norvegicus, UniProt P14842); experiment: Displacement of [125I]DOI from rat cortex 5HT2A after 1 hr by beta scintillation counting method
# T1 sequence (P14842 whole entry): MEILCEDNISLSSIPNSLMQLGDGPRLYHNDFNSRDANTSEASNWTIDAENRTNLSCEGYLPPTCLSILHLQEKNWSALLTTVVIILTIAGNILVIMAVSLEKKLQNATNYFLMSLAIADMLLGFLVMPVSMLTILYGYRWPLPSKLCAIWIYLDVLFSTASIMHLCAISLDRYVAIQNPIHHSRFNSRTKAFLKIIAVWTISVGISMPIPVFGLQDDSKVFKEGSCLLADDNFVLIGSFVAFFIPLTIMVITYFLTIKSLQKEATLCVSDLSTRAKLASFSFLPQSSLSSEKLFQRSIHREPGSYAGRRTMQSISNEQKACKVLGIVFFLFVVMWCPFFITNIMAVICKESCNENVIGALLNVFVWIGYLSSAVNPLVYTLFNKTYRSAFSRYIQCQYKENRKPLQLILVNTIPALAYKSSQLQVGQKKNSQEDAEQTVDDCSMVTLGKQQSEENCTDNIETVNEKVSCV
# Rattus norvegicus [3] = experiment: In vivo agonist activity at 5HT2A in ip dosed DOM-trained Sprague-Dawley rat assessed as increase in discriminative stimulus pretreated before testing; type: functional
# [4] = molecular target: T1, 5-hydroxytryptamine receptor 2A; experiment: Displacement of [3H]ketanserin from 5HT2A in Sprague-Dawley rat cortex membranes measured after 15 mins; type: cell membranes
# [5] = molecular target: T2, Alpha-2C adrenergic receptor (Homo sapiens, UniProt P18825); experiment: Binding affinity to alpha-2C receptor (unknown origin)
# T2 sequence (P18825 whole entry): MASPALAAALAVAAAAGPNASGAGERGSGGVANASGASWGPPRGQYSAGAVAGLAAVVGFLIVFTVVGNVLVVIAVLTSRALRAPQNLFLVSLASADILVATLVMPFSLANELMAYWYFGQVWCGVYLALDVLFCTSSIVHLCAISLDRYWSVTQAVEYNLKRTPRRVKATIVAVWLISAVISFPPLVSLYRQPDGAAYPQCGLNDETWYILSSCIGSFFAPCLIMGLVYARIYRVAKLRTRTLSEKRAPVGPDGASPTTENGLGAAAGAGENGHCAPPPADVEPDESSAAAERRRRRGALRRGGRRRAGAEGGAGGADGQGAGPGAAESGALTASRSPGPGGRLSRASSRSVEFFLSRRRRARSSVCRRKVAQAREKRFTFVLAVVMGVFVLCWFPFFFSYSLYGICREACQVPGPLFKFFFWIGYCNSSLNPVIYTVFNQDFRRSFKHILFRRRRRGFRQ
# Mus musculus = experiment: Anxiolytic-like activity in iv dosed ICR mouse assessed as increase in marbles left uncovered measured after 30 mins by marble burying assay; type: functional; conditions: 0.5 h
# [6] = molecular target: T3, Alpha-2A adrenergic receptor (Homo sapiens, UniProt P08913); experiment: Binding affinity to alpha-2A receptor (unknown origin)
# T3 sequence (P08913 whole entry): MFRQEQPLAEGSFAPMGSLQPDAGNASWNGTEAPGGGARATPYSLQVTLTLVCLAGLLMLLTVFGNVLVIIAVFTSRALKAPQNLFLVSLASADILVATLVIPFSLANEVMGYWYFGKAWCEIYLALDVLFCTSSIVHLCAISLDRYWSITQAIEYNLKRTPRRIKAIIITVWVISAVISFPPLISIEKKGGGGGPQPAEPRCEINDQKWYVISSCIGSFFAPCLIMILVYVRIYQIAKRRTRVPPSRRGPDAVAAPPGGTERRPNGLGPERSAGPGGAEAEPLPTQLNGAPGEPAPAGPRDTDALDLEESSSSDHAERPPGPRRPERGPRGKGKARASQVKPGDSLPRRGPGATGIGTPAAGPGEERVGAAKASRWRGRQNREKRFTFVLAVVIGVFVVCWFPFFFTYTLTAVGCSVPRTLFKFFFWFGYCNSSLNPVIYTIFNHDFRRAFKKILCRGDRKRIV
# [7] = molecular target: T4, Alpha-2B adrenergic receptor (Homo sapiens, UniProt P18089); experiment: Binding affinity to alpha-2B receptor (unknown origin)
# T4 sequence (P18089 whole entry): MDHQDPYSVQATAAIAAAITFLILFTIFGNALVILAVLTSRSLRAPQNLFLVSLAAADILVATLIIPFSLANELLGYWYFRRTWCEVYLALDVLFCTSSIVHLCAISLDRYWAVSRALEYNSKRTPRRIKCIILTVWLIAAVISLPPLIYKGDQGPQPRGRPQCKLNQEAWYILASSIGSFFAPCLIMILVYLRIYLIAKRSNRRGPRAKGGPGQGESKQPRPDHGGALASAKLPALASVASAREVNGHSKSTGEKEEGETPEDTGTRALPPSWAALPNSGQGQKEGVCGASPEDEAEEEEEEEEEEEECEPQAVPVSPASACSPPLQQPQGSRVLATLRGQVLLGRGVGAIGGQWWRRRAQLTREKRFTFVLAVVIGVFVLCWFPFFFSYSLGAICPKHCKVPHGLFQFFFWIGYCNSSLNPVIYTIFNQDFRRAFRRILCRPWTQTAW
# [8] = molecular target: Trace amine-associated receptor 1 (Rattus norvegicus, UniProt Q923Y9); experiment: Agonist activity at rat N-terminal FLAG-tagged TAAR1 expressed in HEK293 cells assessed as [3H]cAMP accumulation measured after 1 hr; type: functional, cell-based
# Sequence of Trace amine-associated receptor 1 (Q923Y9 whole entry): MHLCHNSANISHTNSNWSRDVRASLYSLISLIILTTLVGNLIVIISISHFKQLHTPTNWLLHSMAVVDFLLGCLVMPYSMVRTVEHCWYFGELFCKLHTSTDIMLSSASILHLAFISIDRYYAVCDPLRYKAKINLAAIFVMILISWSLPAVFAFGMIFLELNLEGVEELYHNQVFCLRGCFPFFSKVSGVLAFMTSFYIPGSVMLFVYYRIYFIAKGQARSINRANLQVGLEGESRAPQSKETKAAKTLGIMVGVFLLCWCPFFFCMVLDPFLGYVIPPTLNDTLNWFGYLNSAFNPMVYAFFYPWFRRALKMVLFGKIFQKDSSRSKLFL
# [9] = molecular target: T5, 5-hydroxytryptamine receptor 1A (Homo sapiens, UniProt P08908); experiment: Binding affinity to 5-HT1A receptor (unknown origin)
# T5 sequence (P08908 whole entry): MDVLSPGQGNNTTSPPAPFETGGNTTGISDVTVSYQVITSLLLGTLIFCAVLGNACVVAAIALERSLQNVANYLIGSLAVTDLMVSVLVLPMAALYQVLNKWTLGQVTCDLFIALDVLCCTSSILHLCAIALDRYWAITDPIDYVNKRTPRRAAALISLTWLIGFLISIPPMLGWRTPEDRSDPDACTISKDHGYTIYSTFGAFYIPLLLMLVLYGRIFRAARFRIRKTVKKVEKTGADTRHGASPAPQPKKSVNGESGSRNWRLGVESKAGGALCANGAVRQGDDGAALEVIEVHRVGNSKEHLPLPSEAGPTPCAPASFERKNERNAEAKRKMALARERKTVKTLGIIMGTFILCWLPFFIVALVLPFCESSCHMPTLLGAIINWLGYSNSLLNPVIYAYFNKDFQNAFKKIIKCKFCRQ
# [10] = molecular target: Sodium-dependent dopamine transporter (Rattus norvegicus, UniProt P23977); experiment: Inhibition of DAT in Sprague-Dawley rat synaptosomes assessed as reduction in [3H]dopamine uptake by liquid scintillation counting method; type: subcellular
# Sequence of Sodium-dependent dopamine transporter (P23977 whole entry): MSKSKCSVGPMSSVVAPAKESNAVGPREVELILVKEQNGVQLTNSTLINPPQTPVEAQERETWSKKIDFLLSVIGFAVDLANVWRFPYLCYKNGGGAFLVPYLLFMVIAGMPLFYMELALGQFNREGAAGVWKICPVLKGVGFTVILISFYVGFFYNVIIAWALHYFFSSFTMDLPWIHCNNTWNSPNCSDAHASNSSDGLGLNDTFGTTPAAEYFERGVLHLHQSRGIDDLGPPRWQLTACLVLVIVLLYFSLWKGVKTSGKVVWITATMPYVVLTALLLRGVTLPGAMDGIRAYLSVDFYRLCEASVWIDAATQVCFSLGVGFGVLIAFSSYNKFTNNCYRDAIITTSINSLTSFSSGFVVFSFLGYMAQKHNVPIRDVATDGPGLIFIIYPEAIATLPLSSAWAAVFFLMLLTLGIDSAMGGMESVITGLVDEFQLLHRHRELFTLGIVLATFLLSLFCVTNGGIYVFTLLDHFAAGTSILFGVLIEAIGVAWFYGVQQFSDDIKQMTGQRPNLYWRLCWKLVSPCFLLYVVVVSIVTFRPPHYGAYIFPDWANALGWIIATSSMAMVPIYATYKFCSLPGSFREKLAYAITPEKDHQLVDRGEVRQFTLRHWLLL
# Rattus norvegicus [11] = organism: Rattus norvegicus; experiment: Induction of stimulus generalization in Sprague-Dawley rat trained to discriminate S(-)MCAT assessed as appropriate responding level to training drug by two lever method; type: functional
# Rattus norvegicus [12] = organism: Rattus norvegicus; experiment: Induction of stimulus generalization in Sprague-Dawley rat trained to discriminate TDIQ assessed as appropriate responding level to training drug by two lever method; type: functional
# Rattus norvegicus [13] = organism: Rattus norvegicus; experiment: Induction of stimulus generalization in Sprague-Dawley rat trained to discriminate S(+)AMPH assessed as appropriate responding level to training drug by two lever method; type: functional
# Rattus norvegicus [14] = organism: Rattus norvegicus; experiment: Induction of stimulus generalization in rat trained to discriminate S(+)methamphetamine assessed as appropriate responding level to training drug by two lever method; type: functional
# Sequence of 5-hydroxytryptamine receptor 6 (P50406 whole entry): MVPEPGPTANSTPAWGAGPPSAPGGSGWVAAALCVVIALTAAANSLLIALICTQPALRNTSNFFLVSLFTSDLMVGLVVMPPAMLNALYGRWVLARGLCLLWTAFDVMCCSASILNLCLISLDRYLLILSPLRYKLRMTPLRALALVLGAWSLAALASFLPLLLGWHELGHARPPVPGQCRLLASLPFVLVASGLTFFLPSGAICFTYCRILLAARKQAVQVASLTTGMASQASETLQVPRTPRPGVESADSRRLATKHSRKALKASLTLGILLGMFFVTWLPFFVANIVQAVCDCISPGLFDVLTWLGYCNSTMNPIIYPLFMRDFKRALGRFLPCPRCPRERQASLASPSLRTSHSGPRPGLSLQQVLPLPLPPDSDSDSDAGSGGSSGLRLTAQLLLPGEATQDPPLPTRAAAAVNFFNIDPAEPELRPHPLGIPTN
structure (smiles),measurement,setting,value
NCCc1ccc(S(=O)(=O)n2ccc3ccccc32)cc1,Ki,[1],0.0025 µM
C[C@H](N)Cn1ncc2ccc3c(c21)CCCO3,ED50,Rhesus monkey,0.04 mg/kg
same,Ki,[2],0.00013 µM
same,ED50,Rattus norvegicus [3],0.05 mg/kg
COc1cc(CC(C)N(C)C)c(OC)cc1Br (stereo not drawn),Ki,[4],0.38 µM
c1c2c(cc3c1OCO3)CNCC2,Ki,[5],< 0.1 µM
same,ED50,Mus musculus,0.2 mg/kg
same,Ki,[6],< 0.1 µM
same,Ki,[7],< 0.1 µM
NCCc1ccccc1 [PHENETHYLAMINE],EC50,[8],0.24 µM
CCCNCCc1ccccc1O,Ki,[9],> 1 µM
CCC[C@@H](C(=O)c1ccc2c(c1)OCO2)N1CCCC1,IC50,[10],0.0021 µM
CCCN(CCC)CCc1ccccc1O,Ki,[9],0.4 µM
COC(=O)[C@H]1[C@@H](OC(=O)c2ccccc2)C[C@@H]2CC[C@H]1N2C [COCAINE],ED50,Rattus norvegicus [11],1.47 mg/kg
same,ED50,Rattus norvegicus [12],1.5 mg/kg
same,ED50,Rattus norvegicus [13],5.63 mg/kg
same,ED50,Rattus norvegicus [14],3.68 to 6.68 mg/kg
NC1CCc2c(cccc2NS(=O)(=O)c2ccccc2)C1 (stereo not drawn),Ki,[1],0.049 µM
